# Experiments:
# [1] = target: T1, neurokinin receptor (U-373MG glioma cell line) (Homo sapiens, UniProt P25103); test: Neurokinin receptor inhibition: binding of fluorescent substance P to U-373MG cells; details: 50 nM sample, 50nM SP
# T1 construct: Cell line (U-373MG glioma cell line) over-expressing neurokinin receptor; host or cells: U-373MG glioma cell line
# Experimental: Cell line (U-373MG glioma cell line) over-expressing neurokinin receptor was purchased from Korean Cell Line Bank. The cell line was incubated with 5% CO2 in a medium (90% of RPMI 1640, 10% of fetal bovine serum, 100 IU/ml of penicillin, 100 μg/ml of streptomycin, 2 mM of L-glutamine, and 1.0 mM of sodium pyruvate), and was sub-cultured every 6-8 days with 0.25% trypsin solution.
# Cells were diluted to have various cell numbers, and were seeded onto a 24-well plate. After 48 hours, substance P (SP) connected with a probe was added in various concentrations. After some time for reaction, the concentration of fluorescence probe-containing SP (Oregon Green488 conjugate, Molecular Probes, Eugene, Oreg.) bound to the receptor was measured with a fluorophotometer according to the number of cells and the concentrations, through which the ideal condition was established [V J. Bennett et al., BMC Chem. Biol., 1:1, 2001]. Non-peptide antagonist, L-733060 (estimated affinity=0.8nM), which selectively binds to the receptor was used as a control [R. Bang et al., J. Pharmacol. Exp. Ther., 305, p 31-39, 2003].
# 50% Ethanol aqueous solution extract of Atractylodes japonica was solved in DMSO (the final concentration is within 0.1%) and diluted with distilled water. […] Then, cells were dissolved in 5% Triton X-100, and their fluorescence (Ex 485/Em 528) was measured with black, opaque 96-well plate. […]
# [2] = target: neurokinin receptor (Homo sapiens, UniProt P25103); details: non-peptide antagonist which selectively binds to the receptor; cited from earlier work
# Sequence of neurokinin receptor (P25103 whole entry): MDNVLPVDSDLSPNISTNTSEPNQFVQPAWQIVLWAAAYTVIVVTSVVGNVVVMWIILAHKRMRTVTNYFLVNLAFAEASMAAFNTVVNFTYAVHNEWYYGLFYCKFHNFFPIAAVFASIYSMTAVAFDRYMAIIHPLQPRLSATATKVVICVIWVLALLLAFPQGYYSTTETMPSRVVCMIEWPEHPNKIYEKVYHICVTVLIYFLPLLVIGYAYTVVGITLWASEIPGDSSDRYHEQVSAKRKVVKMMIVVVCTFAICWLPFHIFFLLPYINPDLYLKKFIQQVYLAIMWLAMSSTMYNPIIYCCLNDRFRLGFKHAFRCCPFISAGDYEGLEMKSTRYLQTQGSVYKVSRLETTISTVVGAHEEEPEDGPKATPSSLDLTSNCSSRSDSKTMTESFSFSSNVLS
# T1 sequence (P25103 whole entry): as above
smiles,measurement,setting,value
"FC(F)(F)c1cc(CO[C@H]2CCCN[C@H]2c2ccccc2)cc(C(F)(F)F)c1 [Extract L-733060, L-733060]",Relative Inhibitory Activity (%),[1],72 ± 8 %
same,estimated affinity,[2],0.8 nM

# From patent publication US20120128807A1, “COMPOSITION FOR PREVENTING OR TREATING IRRITABLE BOWEL SYNDROME” (SK CHEMICALS CO., LTD., priority 2009, published 2012)
